Test system: uric acid levels
Test: Multiple ascending dose study every twelve hours for seven days, uric acid in healthy elderly subjects
Format: in vivo, human
Conditions: for uric acid, Mean: N=6
Procedure: A single-center, randomized, placebo-controlled, multiple ascending dose study evaluating a scyllo-inositol formulation was conducted in healthy elderly subjects. Approximately 32 healthy subjects (men and women) participated in […] consisting of 8 subjects each (i.e., 6 on active drug and 2 on placebo). Subjects received drug twice daily (BID) (every 12 hours) for 7 days. The dosage levels of the scyllo-inositol were 200 mg BID (400 mg/d total), 700 mg BID (1400 mg/d total), 1500 mg BID (3000 mg/d total) and 3000 mg BID (6000 mg/d total) given every 12 hours. Blood samples were collected from each subject on days 0, 4, 7, and 12.
Scyllo-inositol 200 and 500 mg capsules were bovine spongiform encephalopathy (BSE)/transmissible spongiform encephalopathy (TSE)-free soft gelatin, white, opaque capsules and no excipient was used in the finished product. Capsules were supplied in 60-mL, oblong, white pharmaceutical high density polyethylene (HDPE) bottles with white caps. Each 60-mL bottle contained 30 capsules of 200 or 500 mg scyllo-inositol.
The mean change from baseline to day 7 versus placebo was used to determine statistical significance. […] The ANCOVA looked at the change of uric acid levels in controls from starting levels of uric acid; the software used was SAS 9.1.3. […] The point estimate of 0.85 is a population parameter in dosed subjects.

[1] = 200 mg BID oral 7 days group, Baseline (Day 0)
[2] = 700 mg BID oral 7 days group, Baseline (Day 0)
[3] = 1500 mg BID oral 7 days group, Baseline (Day 0)
[4] = 1500 mg BID oral 7 days, Day 12
[5] = 3000 mg BID oral 7 days group, Baseline (Day 0)
[6] = 3000 mg BID oral 7 days, Day 12

O[C@H]1[C@H](O)[C@@H](O)[C@H](O)[C@@H](O)[C@@H]1O [scyllo-inositol, 1,2,3,4,5,6-cyclohexanehexyl, (1alpha,2beta,3alpha,4beta,5alpha,6beta)]
uric acid, Max [1]: 458 micromole per liter | uric acid, Median [1]: 318.2 micromole per liter | uric acid, Min [1]: 149 micromole per liter | uric acid, Mean [1]: 316.2 micromole per liter | uric acid, Max (200 mg BID oral 7 days, Day 4): 410 micromole per liter | uric acid, Max Change from Baseline (200 mg BID oral 7 days, Day 4): 54 micromole per liter | uric acid, Mean Change from Baseline (200 mg BID oral 7 days, Day 4): −7.9 micromole per liter | uric acid, Median (200 mg BID oral 7 days, Day 4): 330.1 micromole per liter | uric acid, Median Change from Baseline (200 mg BID oral 7 days, Day 4): −11.9 micromole per liter | uric acid, Min (200 mg BID oral 7 days, Day 4): 143 micromole per liter | uric acid, Min Change from Baseline (200 mg BID oral 7 days, Day 4): −48 micromole per liter | uric acid, Mean (200 mg BID oral 7 days, Day 4): 308.3 micromole per liter | uric acid, Max (200 mg BID oral 7 days, Day 7): 387 micromole per liter | uric acid, Max Change from Baseline (200 mg BID oral 7 days, Day 7): 18 micromole per liter | uric acid, Mean Change from Baseline (200 mg BID oral 7 days, Day 7): −25.8 micromole per liter | uric acid, Median (200 mg BID oral 7 days, Day 7): 333.1 micromole per liter | uric acid, Median Change from Baseline (200 mg BID oral 7 days, Day 7): −17.8 micromole per liter | uric acid, Min (200 mg BID oral 7 days, Day 7): 143 micromole per liter | uric acid, Min Change from Baseline (200 mg BID oral 7 days, Day 7): −77 micromole per liter | uric acid, Mean (200 mg BID oral 7 days, Day 7): 290.5 micromole per liter | uric acid, Max (200 mg BID oral 7 days, Day 12): 476 micromole per liter | uric acid, Max Change from Baseline (200 mg BID oral 7 days, Day 12): 59 micromole per liter | uric acid, Median (200 mg BID oral 7 days, Day 12): 368.8 micromole per liter | uric acid, Median Change from Baseline (200 mg BID oral 7 days, Day 12): 26.8 micromole per liter | uric acid, Min (200 mg BID oral 7 days, Day 12): 184 micromole per liter | uric acid, Min Change from Baseline (200 mg BID oral 7 days, Day 12): −12 micromole per liter | uric acid, Mean (200 mg BID oral 7 days, Day 12): 342.0 micromole per liter | uric acid, Max [2]: 410 micromole per liter | uric acid, Median [2]: 258.7 micromole per liter | uric acid, Min [2]: 161 micromole per liter | uric acid, Mean [2]: 269.6 micromole per liter | uric acid, Max (700 mg BID oral 7 days, Day 4): 351 micromole per liter | uric acid, Max Change from Baseline (700 mg BID oral 7 days, Day 4): 0 micromole per liter | uric acid, Mean Change from Baseline (700 mg BID oral 7 days, Day 4): −51.5 micromole per liter | uric acid, Median (700 mg BID oral 7 days, Day 4): 175.5 micromole per liter | uric acid, Median Change from Baseline (700 mg BID oral 7 days, Day 4): −62.5 micromole per liter | uric acid, Min (700 mg BID oral 7 days, Day 4): 143 micromole per liter | uric acid, Min Change from Baseline (700 mg BID oral 7 days, Day 4): −101 micromole per liter | uric acid, Mean (700 mg BID oral 7 days, Day 4): 218.1 micromole per liter | uric acid, Max (700 mg BID oral 7 days, Day 7): 309 micromole per liter | uric acid, Max Change from Baseline (700 mg BID oral 7 days, Day 7): −12 micromole per liter | uric acid, Mean Change from Baseline (700 mg BID oral 7 days, Day 7): −70.4 micromole per liter | uric acid, Median (700 mg BID oral 7 days, Day 7): 169.5 micromole per liter | uric acid, Median Change from Baseline (700 mg BID oral 7 days, Day 7): −83.3 micromole per liter | uric acid, Min (700 mg BID oral 7 days, Day 7): 125 micromole per liter | uric acid, Min Change from Baseline (700 mg BID oral 7 days, Day 7): −107 micromole per liter | uric acid, Mean (700 mg BID oral 7 days, Day 7): 199.3 micromole per liter | uric acid, Max (700 mg BID oral 7 days, Day 12): 410 micromole per liter | uric acid, Max Change from Baseline (700 mg BID oral 7 days, Day 12): 30 micromole per liter | uric acid, Mean Change from Baseline (700 mg BID oral 7 days, Day 12): −1.0 micromole per liter | uric acid, Median (700 mg BID oral 7 days, Day 12): 237.9 micromole per liter | uric acid, Median Change from Baseline (700 mg BID oral 7 days, Day 12): 3.0 micromole per liter | uric acid, Min (700 mg BID oral 7 days, Day 12): 167 micromole per liter | uric acid, Min Change from Baseline (700 mg BID oral 7 days, Day 12): −54 micromole per liter | uric acid, Mean (700 mg BID oral 7 days, Day 12): 268.7 micromole per liter | uric acid, Max [3]: 434 micromole per liter | uric acid, Median [3]: 279.6 micromole per liter | uric acid, Min [3]: 220 micromole per liter | uric acid, Mean [3]: 303.3 micromole per liter | uric acid, Max (1500 mg BID oral 7 days, Day 4): 291 micromole per liter | uric acid, Max Change from Baseline (1500 mg BID oral 7 days, Day 4): 12 micromole per liter | uric acid, Mean Change from Baseline (1500 mg BID oral 7 days, Day 4): −70.4 micromole per liter | uric acid, Median (1500 mg BID oral 7 days, Day 4): 237.9 micromole per liter | uric acid, Median Change from Baseline (1500 mg BID oral 7 days, Day 4): −71.4 micromole per liter | uric acid, Min (1500 mg BID oral 7 days, Day 4): 155 micromole per liter | uric acid, Min Change from Baseline (1500 mg BID oral 7 days, Day 4): −143 micromole per liter | uric acid, Mean (1500 mg BID oral 7 days, Day 4): 233.0 micromole per liter | uric acid, Max (1500 mg BID oral 7 days, Day 7): 256 micromole per liter | uric acid, Max Change from Baseline (1500 mg BID oral 7 days, Day 7): −24 micromole per liter | uric acid, Mean Change from Baseline (1500 mg BID oral 7 days, Day 7): −88.2 micromole per liter | uric acid, Median (1500 mg BID oral 7 days, Day 7): 229.0 micromole per liter | uric acid, Median Change from Baseline (1500 mg BID oral 7 days, Day 7): −77.3 micromole per liter | uric acid, Min (1500 mg BID oral 7 days, Day 7): 155 micromole per liter | uric acid, Min Change from Baseline (1500 mg BID oral 7 days, Day 7): −196 micromole per liter | uric acid, Mean (1500 mg BID oral 7 days, Day 7): 215.1 micromole per liter | uric acid, Max [4]: 399 micromole per liter | uric acid, Max Change from Baseline [4]: 18 micromole per liter | uric acid, Mean Change from Baseline [4]: −27.8 micromole per liter | uric acid, Median [4]: 279.6 micromole per liter | uric acid, Median Change from Baseline [4]: −29.7 micromole per liter | uric acid, Min [4]: 196 micromole per liter | uric acid, Min Change from Baseline [4]: −65 micromole per liter | uric acid, Mean [4]: 275.6 micromole per liter | uric acid, Max [5]: 363 micromole per liter | uric acid, Median [5]: 300.4 micromole per liter | uric acid, Min [5]: 226 micromole per liter | uric acid, Mean [5]: 299.4 micromole per liter | uric acid, Max (3000 mg BID oral 7 days, Day 4): 262 micromole per liter | uric acid, Max Change from Baseline (3000 mg BID oral 7 days, Day 4): −59 micromole per liter | uric acid, Mean Change from Baseline (3000 mg BID oral 7 days, Day 4): −83.3 micromole per liter | uric acid, Median (3000 mg BID oral 7 days, Day 4): 226.0 micromole per liter | uric acid, Median Change from Baseline (3000 mg BID oral 7 days, Day 4): −83.3 micromole per liter | uric acid, Min (3000 mg BID oral 7 days, Day 4): 161 micromole per liter | uric acid, Min Change from Baseline (3000 mg BID oral 7 days, Day 4): −107 micromole per liter | uric acid, Mean (3000 mg BID oral 7 days, Day 4): 216.1 micromole per liter | uric acid, Max (3000 mg BID oral 7 days, Day 7): 268 micromole per liter | uric acid, Max Change from Baseline (3000 mg BID oral 7 days, Day 7): −71 micromole per liter | uric acid, Mean Change from Baseline (3000 mg BID oral 7 days, Day 7): −85.3 micromole per liter | uric acid, Median (3000 mg BID oral 7 days, Day 7): 214.1 micromole per liter | uric acid, Median Change from Baseline (3000 mg BID oral 7 days, Day 7): −74.4 micromole per liter | uric acid, Min (3000 mg BID oral 7 days, Day 7): 149 micromole per liter | uric acid, Min Change from Baseline (3000 mg BID oral 7 days, Day 7): −131 micromole per liter | uric acid, Mean (3000 mg BID oral 7 days, Day 7): 214.1 micromole per liter | uric acid, Max [6]: 345 micromole per liter | uric acid, Max Change from Baseline [6]: 18 micromole per liter | uric acid, Mean Change from Baseline [6]: −29.7 micromole per liter | uric acid, Median [6]: 270.6 micromole per liter | uric acid, Median Change from Baseline [6]: −23.8 micromole per liter | uric acid, Min [6]: 208 micromole per liter | uric acid, Min Change from Baseline [6]: −83 micromole per liter | uric acid, Mean [6]: 269.6 micromole per liter | decreases from baseline in uric acid, dose-response (200-3000 mg BID oral 7 days, Day 7): a dose-response effect was not as apparent | mean uric acid levels, relation to dose (200-3000 mg BID oral 7 days, Days 4 and 7, Day 12): dose-related decrease in mean uric acid levels was observed at Days 4 and 7, which partially resolved by Day 12 | mean difference (PLC-TRT) in change from baseline to day 7, point estimate (scyllo-inositol treated versus placebo, Day 7, ANCOVA): 0.85
